Common to all, as to type: cell-based
Test [1] has as its system T47D (PI3Kα H1047R mutant) cells. The test can be described thus: Inhibition of pAKT formation, alphaLISA SureFire Ultra AKT 1/2/3 (pS473), T47D cells. As to conditions: Homo sapiens, T47D. The gist of the method:
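T47D cells (12,000/well) in HBSS were dosed with compound at 10 concentrations (10.4 μM top, 1:4 dilutions) for about 1 h or 24 h at 37 °C, then lysed. pS473 AKT was read by alphaLISA. Signals were normalized to alpelisib and DMSO controls, and IC50 came from a four-parameter fit.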
For orientation: In Alpha technology, singlet oxygen from a donor bead excites a nearby acceptor bead.

For test [2], the system named is SKBR3 (PI3Kα wild type) cells. The test can be described thus: CellTiter-Glo 2.0 luminescent cell viability assay, 72 hours, SKBR3 cells. A digest of the protocol: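 Viability measured via CTG luminescence following roughly 72 hours of compound exposure at 37° C. Dosing used a 10 um starting concentration diluted 1:4 over 10 points; percent-of-vehicle data fitted with a variable-slope four-parameter model for IC50.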

The subject of test [3] is T47D (PI3Kα H1047R mutant) cells. The test can be described thus: CellTiter-Glo 2.0 luminescent cell viability assay, 72 hours, T47D cells. The gist of the method:
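Cells seeded at 1000 per well overnight were dosed with a 10-concentration, 1:4 series starting at 10 µM and incubated ~72 h at 37° C. Viability was read by CellTiter-Glo 2.0 luminescence after 30 min at room temperature. IC50 came from four-parameter fits of percent vehicle control.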
On the technique in general: Cellular ATP, detected with luciferase, serves as a proxy for viable cell number.

[4] abbreviates: T47D (PI3Kα H1047R mutant) cells, inhibition of pAKT (pS473) formation, approximately one hour or 24 hours treatment, read-out: T47D pAKT (H1047R mutant) IC50.
[5] abbreviates: Homo sapiens, SK-BR-3, 72 h, SKBR3 (PI3Kα wild type) cells, CellTiter-Glo, approximately 72 hours, read-out: SKBR3 (WT) Viability IC50.
Setting [6] is: Homo sapiens, T47D, 72 h, T47D (PI3Kα H1047R mutant) cells, CellTiter-Glo, approximately 72 hours, read-out: T47D (H1047R mutant) Viability IC50.

Our source for the IC50 values is patent publication US20260078120A1, “SUBSTITUTED PYRIDOPYRIMIDINONES” (MIRATI THERAPEUTICS, INC., priority 2022, published 2026).

The IC50 is the concentration at which inhibition is half-maximal.

Read-outs that look alike come from different tables or passages of the source.

Regarding `Cc1cc([C@@H](C)Nc2ccccc2C(=O)O)c2nc(N3CCN(c4ccc(C#N)cc4)C(C)C3)c(C)c(=O)n2c1` (stereo partly drawn) [Example 10-110, 2-(((1R)-1-(2-(4-(4-cyanophenyl)-3-methylpiperazin-1-yl)-3,7-dimethyl-4-oxo-4H-pyrido[1,2-a]pyrimidin-9-yl)ethyl)amino)benzoic acid], the IC50 in test [1] (setting [4]) was 1.05 nM; in test [2] (setting [5]), more than 10000 nM; in test [3] (setting [6]), 94.1 nM.
The like results for `Cc1cc([C@@H](C)Nc2ccccc2C(=O)O)c2nc(N3CCC(F)(F)[C@H]3C)c(C#N)c(=O)n2c1` [Example 10-32, 2-(((R)-1-(3-cyano-2-((R)-3,3-difluoro-2-methylpyrrolidin-1-yl)-7-methyl-4-oxo-4H-pyrido[1,2-a]pyrimidin-9-yl)ethyl)amino)benzoic acid] were, in that order, 5.78 nM, more than 10000 nM and 67.3 nM.
The like results for `Cc1cc([C@@H](C)Nc2ccccc2C(=O)O)c2nc(N3CCN(c4ccc(C#N)c5cc(C#N)ccc45)CC3)c(C)c(=O)n2c1` [Example 10-35, (R)-2-((1-(2-(4-(4,6-dicyanonaphthalen-1-yl)piperazin-1-yl)-3,7-dimethyl-4-oxo-4H-pyrido[1,2-a]pyrimidin-9-yl)ethyl)amino)benzoic acid] were, in that order, 4.72 nM, 7950 nM and 56.7 nM.
For `Cc1cc([C@@H](C)Nc2ccccc2C(=O)O)c2nc(N3CCN(c4ncc(C#N)cn4)CC3)c(C#N)c(=O)n2c1` [Example 10-112, (R)-2-((1-(3-cyano-2-(4-(5-cyanopyrimidin-2-yl)piperazin-1-yl)-7-methyl-4-oxo-4H-pyrido[1,2-a]pyrimidin-9-yl)ethyl)amino)benzoic acid], the IC50 is 6.23 nM in test [1] (setting [4]), more than 10000 nM in test [2] (setting [5]) and 96.7 nM in test [3] (setting [6]).
The like results for `Cc1cc([C@@H](C)Nc2ccccc2C(=O)O)c2nc(N3CCN(c4cccnc4)CC3)c(C)c(=O)n2c1` [Example 10-38, (R)-2-((1-(3,7-dimethyl-4-oxo-2-(4-(pyridin-3-yl)piperazin-1-yl)-4H-pyrido[1,2-a]pyrimidin-9-yl)ethyl)amino)benzoic acid] were, in that order, 1.97 nM, more than 10000 nM and 57.9 nM.
The corresponding values for `Cc1cc([C@@H](C)Nc2ccccc2C(=O)O)c2nc(N3CC4C(C3)C4(F)F)c(C#N)c(=O)n2c1` (stereo partly drawn) [Example 10-100, 2-(((1R)-1-(3-cyano-2-(6,6-difluoro-3-azabicyclo[3.1.0]hexan-3-yl)-7-methyl-4-oxo-4H-pyrido[1,2-a]pyrimidin-9-yl)ethyl)amino)benzoic acid] are 3.82 nM, more than 10000 nM and 86.2 nM.
With `Cc1cc([C@@H](C)Nc2ccccc2C(=O)O)c2nc(N3CCN(c4ccc(C#N)cc4)CC3C)c(C#N)c(=O)n2c1` (stereo partly drawn) [Example 10-109, 2-(((1R)-1-(3-cyano-2-(4-(4-cyanophenyl)-2-methylpiperazin-1-yl)-7-methyl-4-oxo-4H-pyrido[1,2-a]pyrimidin-9-yl)ethyl)amino)benzoic acid], the IC50 in test [1] (setting [4]) was determined as 2.67 nM; in test [2] (setting [5]), 8830 nM; in test [3] (setting [6]), 93.7 nM.
In the case of `Cc1cc([C@@H](C)Nc2ccccc2C(=O)O)c2nc(N3CCN(c4ccccc4)CC3C)c(C#N)c(=O)n2c1` (stereo partly drawn) [Example 10-57, 2-(((1R)-1-(3-cyano-7-methyl-2-(2-methyl-4-phenylpiperazin-1-yl)-4-oxo-4H-pyrido[1,2-a]pyrimidin-9-yl)ethyl)amino)benzoic acid], the IC50 in test [1] (setting [4]) was 5.17 nM; in test [2] (setting [5]) it was more than 10000 nM; in test [3] (setting [6]), 73.3 nM.
The like results for `Cc1cc([C@@H](C)Nc2ccccc2C(=O)O)c2nc(N3CC4CC(C4)C3)c(C)c(=O)n2c1` [Example 10-124, (R)-2-((1-(2-(3-azabicyclo[3.1.1]heptan-3-yl)-3,7-dimethyl-4-oxo-4H-pyrido[1,2-a]pyrimidin-9-yl)ethyl)amino)benzoic acid] were, in that order, 1.59 nM, more than 10000 nM and 105 nM.
Consider `Cc1cc([C@@H](C)Nc2ccccc2C(=O)O)c2nc(N3CCN(c4ccc(C#N)cc4F)CC3)c(C#N)c(=O)n2c1` [Example 10-94, (R)-2-((1-(3-cyano-2-(4-(4-cyano-2-fluorophenyl)piperazin-1-yl)-7-methyl-4-oxo-4H-pyrido[1,2-a]pyrimidin-9-yl)ethyl)amino)benzoic acid], for which the 50% inhibitory concentration (IC50) in test [1] (setting [4]) is 2.02 nM; in test [2] (setting [5]), more than 10000 nM; in test [3] (setting [6]), 83.6 nM.
As to `CCc1cc([C@@H](C)Nc2ccccc2C(=O)O)c2nc(N3Cc4ccccc4C3)c(C#N)c(=O)n2c1` [Example 10-10, (R)-2-((1-(3-cyano-7-ethyl-2-(isoindolin-2-yl)-4-oxo-4H-pyrido[1,2-a]pyrimidin-9-yl)ethyl)amino)benzoic acid], the IC50 in test [1] (setting [4]) is 1.21 nM; in test [2] (SKBR3 (PI3Kα wild type) cells, CellTiter-Glo, approximately 72 hours, read-out: SKBR3 (WT) Viability IC50), 7450 nM; in test [3] (T47D (PI3Kα H1047R mutant) cells, CellTiter-Glo, approximately 72 hours, read-out: T47D (H1047R mutant) Viability IC50), 29.3 nM.
Turning to `COC1(C)CCN(c2nc3c([C@@H](C)Nc4ccccc4C(=O)O)cc(C)cn3c(=O)c2C)CC1` [Example 10-56, (R)-2-((1-(2-(4-methoxy-4-methylpiperidin-1-yl)-3,7-dimethyl-4-oxo-4H-pyrido[1,2-a]pyrimidin-9-yl)ethyl)amino)benzoic acid], the IC50 in test [1] (setting [4]) was 3.95 nM; in test [2] (setting [5]) it was more than 10000 nM; in test [3] (setting [6]) it was 73.2 nM.
Take `C[C@@H](Nc1ccccc1C(=O)O)c1cc(F)cn2c(=O)c(C#N)c(N3Cc4ccccc4C3)nc12` [Example 10-39, (R)-2-((1-(3-cyano-7-fluoro-2-(isoindolin-2-yl)-4-oxo-4H-pyrido[1,2-a]pyrimidin-9-yl)ethyl)amino)benzoic acid]: the 50% inhibitory concentration (IC50) in test [1] (setting [4]) was 1.7 nM; in test [2] (setting [5]), more than 10000 nM; in test [3] (setting [6]) it was 59 nM.
With `Cc1cc([C@@H](C)Nc2ccccc2C(=O)O)c2nc(N3CC4CCC3CC4)c(C#N)c(=O)n2c1` [Example 10-97, (R)-2-((1-(2-(2-azabicyclo[2.2.2]octan-2-yl)-3-cyano-7-methyl-4-oxo-4H-pyrido[1,2-a]pyrimidin-9-yl)ethyl)amino)benzoic acid], the IC50 in test [1] (setting [4]) was 2.04 nM; in test [2] (setting [5]) it was more than 10000 nM; in test [3] (setting [6]), 85.2 nM.
The corresponding values for `Cc1cc([C@@H](C)Nc2ccccc2C(=O)O)c2nc(N3C4CCCC3CC4)c(C#N)c(=O)n2c1` [Example 10-89, 2-(((1R)-1-(2-(8-azabicyclo[3.2.1]octan-8-yl)-3-cyano-7-methyl-4-oxo-4H-pyrido[1,2-a]pyrimidin-9-yl)ethyl)amino)benzoic acid] are 8.14 nM, more than 10000 nM and 81.7 nM.
Regarding `Cc1cc([C@@H](C)Nc2ccccc2C(=O)O)c2nc(N3CCC(c4ccn(C)n4)CC3)c(C)c(=O)n2c1` [Example 10-58, (R)-2-((1-(3,7-dimethyl-2-(4-(1-methyl-1H-pyrazol-3-yl)piperidin-1-yl)-4-oxo-4H-pyrido[1,2-a]pyrimidin-9-yl)ethyl)amino)benzoic acid], the IC50 in test [1] (setting [4]) was 4.02 nM; in test [2] (setting [5]) it was more than 10000 nM; in test [3] (setting [6]), 73.3 nM.
As to `Cc1cc([C@@H](C)Nc2ccccc2C(=O)O)c2nc(N3CCN(c4ccc(C#N)c5cnccc45)CC3)c(C)c(=O)n2c1` [Example 10-19, (R)-2-((1-(2-(4-(8-cyanoisoquinolin-5-yl)piperazin-1-yl)-3,7-dimethyl-4-oxo-4H-pyrido[1,2-a]pyrimidin-9-yl)ethyl)amino)benzoic acid], the half-inhibitory concentration (IC50) in test [1] (read-out: T47D pAKT (H1047R mutant) IC50 (nM)) worked out at 0.244 nM; in test [2] (Homo sapiens, SK-BR-3, 72 h, read-out: SKBR3 (WT) Viability IC50 (nM)), 7640 nM; in test [3] (Homo sapiens, T47D, 72 h, read-out: T47D (H1047R mutant) Viability IC50 (nM)) it was 41.4 nM.
For the compound `Cc1cc([C@@H](C)Nc2ccc(C)nc2C(=O)O)c2nc(N3Cc4ccccc4C3)c(C#N)c(=O)n2c1` [Example 10-5, (R)-3-((1-(3-cyano-2-(isoindolin-2-yl)-7-methyl-4-oxo-4H-pyrido[1,2-a]pyrimidin-9-yl)ethyl)amino)-6-methylpicolinic acid], the IC50 in test [1] (setting [4]) is 0.425 nM; in test [2] (setting [5]) it was 2190 nM; in test [3] (setting [6]) it was 13.6 nM.
The like results for `Cc1cc([C@@H](C)Nc2ccccc2C(=O)O)c2nc(N3CCN(c4ccc(F)cc4F)CC3)c(C)c(=O)n2c1` [Example 10-93, (R)-2-((1-(2-(4-(2,4-difluorophenyl)piperazin-1-yl)-3,7-dimethyl-4-oxo-4H-pyrido[1,2-a]pyrimidin-9-yl)ethyl)amino)benzoic acid] were, in that order, 4.3 nM, more than 10000 nM and 83.2 nM.
